We go through 36 compounds from patent US20240246908A1 (ORION CORPORATION, priority 2021, published 2024).

The test system of this experiment is YAP-TEAD. Kind of experiment: TEAD inhibition, Hippo Pathway TEAD Reporter MCF-7 luciferase assay. The experiment is classed as cell-based. As to conditions: Homo sapiens, MCF7, 24 h, Hippo Pathway TEAD Reporter MCF-7 cells, luciferase activity after 24 h; read-out: IC50 of the test compounds on YAP-TEAD inhibition (Group). In outline:
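MCF-7 cells carrying a TEAD-responsive firefly luciferase reporter, with nuclear YAP1 driving constitutive expression, were treated the day after plating with compounds (11 concentrations, 4 replicates; 0.1% DMSO control). After 24 h, luciferase was read by ONE-Glo luminescence and IC50 determined.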

As for `CC(=O)N1C(=O)CCC1C(=O)Nc1cc(Oc2cccc(C(F)(F)F)c2)cc2c1OCCO2` (stereo not drawn) [Compound 56, 1-Acetyl-5-oxo-N-(7-(3-(trifluoromethyl)phenoxy)-2,3-dihydrobenzo[b][1,4]-dioxin-5-yl)pyrrolidine-2-carboxamide], the IC50 lay within 50 to 300 nM. For `COc1ccc(Oc2ccc(C(F)(F)F)cc2)cc1NC(=O)C1CNC(=O)C1` (stereo not drawn) [Compound 335, N-(2-Methoxy-5-(4-(trifluoromethyl)phenoxy)phenyl)-5-oxopyrrolidine-3-carboxamide] the value was less than 50 nM. Then `COc1ccc(O[C@@H]2CCC[C@H](C(F)(F)F)C2)cc1NC(=O)C1CCC(=O)N1` (stereo partly drawn) [Compound 266, N-(2-Methoxy-5-(((1R,3S)-3-(trifluoromethyl)cyclohexyl)oxy)phenyl)-5-oxo-pyrrolidine-2-carboxamide], with 50 to 300 nM. Take `COc1cc(Oc2ccc(OC)c(NC(=O)[C@H]3CCC(=O)N3C)c2)ccc1F` [Compound 293, (R)—N-(5-(4-Fluoro-3-methoxyphenoxy)-2-methoxyphenyl)-1-methyl-5-oxo-pyrrolidine-2-carboxamide]: the IC50 fell in the range of 50 to 300 nM. For `COc1ccc(Oc2ccc(C(F)(F)F)cn2)cc1NC(=O)C1CNC(=O)N1C1CC1` (stereo not drawn) [Compound 131, 3-Cyclopropyl-N-(2-methoxy-5-((5-(trifluoromethyl)pyridin-2-yl)oxy)phenyl)-2-oxoimidazolidine-4-carboxamide] the value was less than 50 nM. For `COc1ccc(Oc2ccc(Cl)c(F)c2)cc1NC(=O)C1CCC(=O)N1C` (stereo not drawn) [Compound 305, N-(5-(4-Chloro-3-fluorophenoxy)-2-methoxyphenyl)-1-methyl-5-oxopyrrolidine-2-carboxamide] the value was less than 50 nM; for `O=C1CCC(C(=O)Nc2cc(OC3CCC(F)(F)CC3)cc3c2OCC3)CN1` (stereo not drawn) [Compound 190, N-(5-((4,4-Difluorocyclohexyl)oxy)-2,3-dihydrobenzofuran-7-yl)-6-oxo-piperidine-3-carboxamide], 301 to 2000 nM. For `COc1ccc(/C=C/C2CCOCC2)cc1NC(=O)C1CCC(=O)N1` (stereo not drawn) [Compound 65, (E)-N-(2-Methoxy-5-(2-(tetrahydro-2H-pyran-4-yl)vinyl)phenyl)-5-oxo-pyrrolidine-2-carboxamide] the value was 301 to 2000 nM; for `COc1ccc(Oc2cc(F)ccc2F)cc1NC(=O)C1CCC(=O)N1` (stereo not drawn) [Compound 79, N-(5-(2,5-Difluorophenoxy)-2-methoxyphenyl)-5-oxopyrrolidine-2-carboxamide], 301 to 2000 nM; for `COc1ccc(O[C@H]2CC[C@H](C(F)(F)F)CC2)cc1NC(=O)[C@@H]1CCC(=O)N1C` [Compound 105, (S)—N-(2-Methoxy-5-(((trans)-4-(trifluoromethyl)cyclohexyl)oxy)phenyl)-1-methyl-5-oxopyrrolidine-2-carboxamide], less than 50 nM. In the case of `CN1C(=O)NCC1C(=O)Nc1cc(Oc2ccc(C(F)(F)F)cn2)cc2c1OCO2` (stereo not drawn) [Compound 178, 3-Methyl-2-oxo-N-(6-((5-(trifluoromethyl)pyridin-2-yl)oxy)benzo[d]-[1,3]dioxol-4-yl)imidazolidine-4-carboxamide], the IC50 was less than 50 nM. For `COc1ccc(Oc2cccc(C(F)(F)F)c2)cc1NC(=O)C1CC(=O)N1` (stereo not drawn) [Compound 8, N-(2-Methoxy-5-(3-(trifluoromethyl)phenoxy)phenyl)-4-oxoazetidine-2-carboxamide] the value was 50 to 300 nM; for `COc1ccc(Oc2ccc(C(F)(F)F)cc2)cc1NC(=O)[C@H]1CCC(=O)NC1` [Compound 119, (S)—N-(2-Methoxy-5-(4-(trifluoromethyl)phenoxy)phenyl)-6-oxopiperidine-3-carboxamide], less than 50 nM.

As for `COc1ccc(Oc2cccc(Br)c2)cc1NC(=O)C1CCC(=O)N1C` (stereo not drawn) [Compound 299, N-(5-(3-Bromophenoxy)-2-methoxyphenyl)-1-methyl-5-oxopyrrolidine-2-carboxamide], the half-inhibitory concentration (IC50) is less than 50 nM.

Turning to `O=C1CCC(C(=O)Nc2cc(COc3cccc(F)c3)cc3c2OCC3)N1` (stereo not drawn) [Compound 31, N-(5-((3-Fluorophenoxy)methyl)-2,3-dihydrobenzofuran-7-yl)-5-oxopyrrolidine-2-carboxamide], the IC50 fell in the range of 301 to 2000 nM.

Consider `COc1cc(NC(=O)C2CCC(=O)N2C)cc(OC2CCC(C(F)(F)F)CC2)c1` (stereo not drawn) [Compound 264], for which the IC50 was less than 50 nM. With `CCN1C(=O)CCC1C(=O)Nc1cc(Oc2cccc(C(F)(F)F)c2)ccc1OC` (stereo not drawn) [Compound 37, 1-Ethyl-N-(2-methoxy-5-(3-(trifluoromethyl)phenoxy)phenyl)-5-oxopyrrolidine-2-carboxamide], the IC50 was in the range of 50 to 300 nM. For `COc1ccc(Oc2ccc(Cl)cc2)cc1NC(=O)[C@H]1CCC(=O)N1C` [Compound 308, (R)—N-(5-(4-Chlorophenoxy)-2-methoxyphenyl)-1-methyl-5-oxopyrrolidine-2-carboxamide] the value was less than 50 nM; for `O=C(Nc1cc(Oc2cccc(C(F)(F)F)c2)cc2c1OCCO2)C1CCS(=O)(=O)N1` (stereo not drawn) [Compound 54, N-(7-(3-(Trifluoromethyl)phenoxy)-2,3-dihydrobenzo[b][1,4]dioxin-5-yl)-isothiazolidine-3-carboxamide 1,1-dioxide], 301 to 2000 nM. Then `COc1ccc(Oc2ccc(C(F)(F)F)c(OC)c2)cc1NC(=O)C1CCC(=O)N1C` (stereo not drawn) [Compound 391, N-(2-Methoxy-5-(3-methoxy-4-(trifluoromethyl)phenoxy)phenyl)-1-methyl-5-oxopyrrolidine-2-carboxamide], with less than 50 nM; and `COc1ccc(Oc2ccc(F)c(F)c2)cc1NC(=O)C1CCC(=O)N1C(=O)C1CC(=O)N1` (stereo not drawn) [Compound 232, N-(5-(3,4-difluorophenoxy)-2-methoxyphenyl)-5-oxo-1-(4-oxoazetidine-2-carbonyl)pyrrolidine-2-carboxamide], with 50 to 300 nM; and `COc1ccc(Oc2ccc(C(F)(F)F)cc2)cc1NC(=O)[C@H]1CN(C)C(=O)N1C` [Compound 227, (R)—N-(2-Methoxy-5-(4-(trifluoromethyl)phenoxy)phenyl)-1,3-dimethyl-2-oxoimidazolidine-4-carboxamide], with less than 50 nM.

As to `CN1C(=O)OC[C@@H]1C(=O)Nc1cc(Oc2ccc(C(F)(F)F)cn2)ccc1F` [Compound 198, (R)—N-(2-Fluoro-5-((5-(trifluoromethyl)pyridin-2-yl)oxy)phenyl)-3-methyl-2-oxooxazolidine-4-carboxamide], the IC50 fell in the range of 50 to 300 nM. For `COc1ccc(Oc2ccc(C(F)(F)F)cc2)cc1NC(=O)[C@@H]1CN(C)C(=O)N1C` [Compound 226, (S)—N-(2-Methoxy-5-(4-(trifluoromethyl)phenoxy)phenyl)-1,3-dimethyl-2-oxoimidazolidine-4-carboxamide], the IC50 is less than 50 nM.

Take `CN1C(=O)CC[C@H]1C(=O)Nc1cc(Oc2ccc(C(F)(F)F)cc2)ccc1F` [Compound 363, (S)—N-(2-Fluoro-5-(4-(trifluoromethyl)phenoxy)phenyl)-1-methyl-5-oxo-pyrrolidine-2-carboxamide]: the IC50 is less than 50 nM. As to `COc1ccc(OC2CCCC(F)(F)CC2)cc1NC(=O)[C@@H]1CCC(=O)N1C` (stereo partly drawn) [Compound 207, (2S)—N-(5-((4,4-Difluorocycloheptyl)oxy)-2-methoxyphenyl)-1-methyl-5-oxopyrrolidine-2-carboxamide], the half-inhibitory concentration (IC50) lay in the range of 50 to 300 nM. Then `COc1ccc(Oc2ccc(C(F)(F)F)cc2)cc1NC(=O)C1CCN(S(C)(=O)=O)C1` (stereo not drawn) [Compound 326, N-(2-Methoxy-5-(4-(trifluoromethyl)phenoxy)phenyl)-1-(methylsulfonyl)-pyrrolidine-3-carboxamide], with 301 to 2000 nM; and `COc1ccc(NC(=O)C2CCC(=O)N2C)cc1O[C@H]1CC[C@H](C(F)(F)F)CC1` (stereo partly drawn) [Compound 271, (R)—N-(4-methoxy-3-(((1r,4R)-4-(trifluoromethyl)cyclohexyl)oxy)phenyl)-1-methyl-5-oxopyrrolidine-2-carboxamide], with 50 to 300 nM; and `CN1C(=O)NCC1C(=O)Nc1cc(Oc2ccc(C(F)(F)F)cn2)cc2cn[nH]c12` (stereo not drawn) [Compound 193, 3-Methyl-2-oxo-N-(5-((5-(trifluoromethyl)pyridin-2-yl)oxy)-1H-indazol-7-yl)-imidazolidine-4-carboxamide], with 301 to 2000 nM. For `COc1ccc(Oc2ccc(C(F)(F)F)cc2)cc1NC(=O)C1CCC(=S)N1` (stereo not drawn) [Compound 92, N-(2-Methoxy-5-(4-(trifluoromethyl)phenoxy)phenyl)-5-thioxopyrrolidine-2-carboxamide] the value was less than 50 nM. Then `COc1ccc(Oc2ccc(C(F)(F)F)cn2)cc1NC(=O)C1CCC(=O)N1C` (stereo not drawn) [Compound 276, N-(2-methoxy-5-((5-(trifluoromethyl)pyridin-2-yl)oxy)phenyl)-1-methyl-5-oxopyrrolidine-2-carboxamide], with less than 50 nM.

Regarding `COc1ccc(Oc2ccc(OC(F)(F)F)cc2)cc1NC(=O)C1CCC(=O)N1` (stereo not drawn) [Compound 300, N-(2-Methoxy-5-(4-(trifluoromethoxy)phenoxy)phenyl)-5-oxopyrrolidine-2-carboxamide], the IC50 was less than 50 nM.

As to `COc1ccc(Oc2ccc(C(F)(F)F)c(F)c2)cc1NC(=O)C1CCC(=O)N1C` (stereo not drawn) [Compound 395], the IC50 is less than 50 nM. For `CN1C(=O)NC[C@H]1C(=O)Nc1cc(Oc2ccc(C(F)(F)F)cn2)cc2c1OCC2` [Compound 168, (S)-3-Methyl-2-oxo-N-(5-((5-(trifluoromethyl)pyridin-2-yl)oxy)-2,3-dihydro-benzofuran-7-yl)imidazolidine-4-carboxamide], the IC50 is less than 50 nM. As for `COc1ccc(Oc2ccc(Cl)cc2)cc1NC(=O)C1CCC(=O)N1C` (stereo not drawn) [Compound 304, N-(5-(4-Chlorophenoxy)-2-methoxyphenyl)-1-methyl-5-oxopyrrolidine-2-carboxamide], the IC50 was less than 50 nM.

Consider `COc1ccc(Oc2cnc(F)c(C)c2)cc1NC(=O)C1CCC(=O)N1` (stereo not drawn) [Compound 262, N-(5-((6-Fluoro-5-methylpyridin-3-yl)oxy)-2-methoxyphenyl)-5-oxopyrrolidine-2-carboxamide], for which the IC50 lay within 301 to 2000 nM.
